Source: BindingDB's records for doi:10.1021/acs.jmedchem.9b00963 (Hong Kong Polytechnic University, 2019)

Experiment: Inhibition of BCRP in human MCF7/MX100 cells assessed as reversal of topotecan resistance after 5 days by MTS/PMS assay

Compound	EC50 [nM]
O=c1cc(-c2ccc(OCCOCCn3cc(COCCOc4ccc5c(=O)cc(-c6ccccc6)oc5c4)nn3)cc2)oc2ccccc12	235
O=c1cc(-c2ccc(OCCOCCn3cc(CN(CCOc4ccc5c(=O)cc(-c6ccccc6)oc5c4)Cc4ccccc4)nn3)cc2)oc2ccccc12	205
O=c1cc(-c2ccccc2)oc2cc(OCCN(Cc3ccccc3)Cc3cn(CCOCCOCCOc4ccc(-c5cc(=O)c6cc(F)ccc6o5)cc4)nn3)ccc12	20
Cc1ccc2oc(-c3ccc(OCCOCCOCCn4cc(CCCOc5ccc(-c6cc(=O)c7ccc(F)cc7o6)cc5)nn4)cc3)cc(=O)c2c1	20
O=c1cc(-c2ccc(OCCCc3cn(CCOCCOCCOc4ccc(-c5cc(=O)c6cc(F)ccc6o5)cc4)nn3)cc2)oc2cc(F)ccc12	4
Cc1ccc2oc(-c3ccc(OCCCCc4cn(CCOCCOc5ccc(-c6cc(=O)c7cc(F)ccc7o6)cc5)nn4)cc3)cc(=O)c2c1	64
O=c1cc(-c2ccc(OCCCc3cn(CCOCCOc4ccc5c(=O)cc(-c6ccccc6)oc5c4)nn3)cc2)oc2cc(F)ccc12	7.9
O=c1cc(-c2ccc(OCCOCCOCCn3cc(CCCOc4ccc(-c5cc(=O)c6ccc(F)cc6o5)cc4)nn3)cc2)oc2ccccc12	7.4
COC(=O)c1cccc(COc2c(-c3ccc(OCCOCCOCCn4cc(-c5cccc(-c6cn(CCOCCOCCOc7ccc(-c8oc9ccccc9c(=O)c8OCc8cccc(C(=O)OC)c8)cc7)nn6)c5)nn4)cc3)oc3ccccc3c2=O)c1	13
O=c1cc(-c2ccccc2)oc2cc(OCCCCc3cn(CCOCCOCCOc4ccc(-c5oc6ccccc6c(=O)c5OCc5ccccc5)cc4)nn3)ccc12	16
O=c1cc(-c2ccccc2)oc2cc(OCCOCc3cn(CCOCCOCCOc4ccc(-c5cc(=O)c6cc(F)ccc6o5)cc4)nn3)ccc12	264
O=c1cc(-c2ccccc2)oc2cc(OCCOCCOCCn3cc(CN(CCOc4ccc5c(=O)cc(-c6ccccc6)oc5c4)Cc4ccccc4)nn3)ccc12	58
O=c1cc(-c2ccccc2)oc2cc(OCCOCCn3cc(CN(Cc4ccccc4)Cc4cn(CCOCCOc5ccc6c(=O)cc(-c7ccccc7)oc6c5)nn4)nn3)ccc12	278
COC(=O)c1cccc(COc2c(-c3ccc(OCCOCCOCCn4cc(CN(Cc5ccccc5)Cc5cn(CCOCCOCCOc6ccc(-c7oc8ccccc8c(=O)c7OCc7cccc(C(=O)OC)c7)cc6)nn5)nn4)cc3)oc3ccccc3c2=O)c1	4.3
O=c1cc(-c2ccccc2)oc2cc(OCCOCc3cn(CCOCCOc4ccc(-c5cc(=O)c6cc(F)ccc6o5)cc4)nn3)ccc12	195
O=c1c(OCc2ccccc2)c(-c2ccc(OCCOCCOCCn3cc(CN(Cc4ccccc4)Cc4cn(CCOCCOCCOc5ccc(-c6oc7ccccc7c(=O)c6OCc6ccccc6)cc5)nn4)nn3)cc2)oc2ccccc12	26
Cc1ccc2oc(-c3ccc(OCCOCCOCCn4cc(CN(CCOc5ccc6c(=O)cc(-c7ccccc7)oc6c5)Cc5ccccc5)nn4)cc3)cc(=O)c2c1	16
Cc1ccc2oc(-c3ccc(OCCOCCOCCn4cc(CCCOc5ccc6c(=O)cc(-c7ccccc7)oc6c5)nn4)cc3)cc(=O)c2c1	185
COC(=O)c1cccc(COc2c(-c3ccc(OCCOCCOCCn4cc(CN5CCN(Cc6cn(CCOCCOCCOc7ccc(-c8oc9ccccc9c(=O)c8OCc8cccc(C(=O)OC)c8)cc7)nn6)CC5)nn4)cc3)oc3ccccc3c2=O)c1	40
COC(=O)c1cccc(COc2c(-c3ccc(OCCOCCn4cc(CN(C)CCN(C)Cc5cn(CCOCCOc6ccc(-c7oc8ccccc8c(=O)c7OCc7cccc(C(=O)OC)c7)cc6)nn5)nn4)cc3)oc3ccccc3c2=O)c1	84
COC(=O)c1cccc(COc2c(-c3ccc(OCCOCCn4cc(CN5CCN(Cc6cn(CCOCCOc7ccc(-c8oc9ccccc9c(=O)c8OCc8cccc(C(=O)OC)c8)cc7)nn6)CC5)nn4)cc3)oc3ccccc3c2=O)c1	19
COC(=O)c1cccc(COc2c(-c3ccc(OCCOCCn4cc(CN(Cc5ccncc5)Cc5cn(CCOCCOc6ccc(-c7oc8ccccc8c(=O)c7OCc7cccc(C(=O)OC)c7)cc6)nn5)nn4)cc3)oc3ccccc3c2=O)c1	25
COC(=O)c1cccc(COc2c(-c3ccc(OCCOCCn4cc(CN(Cc5cn(CCOCCOc6ccc(-c7oc8ccccc8c(=O)c7OCc7cccc(C(=O)OC)c7)cc6)nn5)c5ccccc5)nn4)cc3)oc3ccccc3c2=O)c1	2.2

Experiment: Inhibition of BCRP (unknown origin) transfected in HEK293/R2 cells assessed as reversal of topotecan resistance after 5 days by MTS/PMS assay

Compound	EC50 [nM]
O=c1cc(-c2ccc(OCCOCCn3cc(COCCOc4ccc5c(=O)cc(-c6ccccc6)oc5c4)nn3)cc2)oc2ccccc12	303
O=c1cc(-c2ccc(OCCOCCn3cc(CN(CCOc4ccc5c(=O)cc(-c6ccccc6)oc5c4)Cc4ccccc4)nn3)cc2)oc2ccccc12	86
O=c1cc(-c2ccccc2)oc2cc(OCCN(Cc3ccccc3)Cc3cn(CCOCCOCCOc4ccc(-c5cc(=O)c6cc(F)ccc6o5)cc4)nn3)ccc12	27
Cc1ccc2oc(-c3ccc(OCCOCCOCCn4cc(CCCOc5ccc(-c6cc(=O)c7ccc(F)cc7o6)cc5)nn4)cc3)cc(=O)c2c1	14
O=c1cc(-c2ccc(OCCCc3cn(CCOCCOCCOc4ccc(-c5cc(=O)c6cc(F)ccc6o5)cc4)nn3)cc2)oc2cc(F)ccc12	3.1
Cc1ccc2oc(-c3ccc(OCCCCc4cn(CCOCCOc5ccc(-c6cc(=O)c7cc(F)ccc7o6)cc5)nn4)cc3)cc(=O)c2c1	15
O=c1cc(-c2ccc(OCCCc3cn(CCOCCOc4ccc5c(=O)cc(-c6ccccc6)oc5c4)nn3)cc2)oc2cc(F)ccc12	6.4
O=c1cc(-c2ccc(OCCOCCOCCn3cc(CCCOc4ccc(-c5cc(=O)c6ccc(F)cc6o5)cc4)nn3)cc2)oc2ccccc12	24
COC(=O)c1cccc(COc2c(-c3ccc(OCCOCCOCCn4cc(-c5cccc(-c6cn(CCOCCOCCOc7ccc(-c8oc9ccccc9c(=O)c8OCc8cccc(C(=O)OC)c8)cc7)nn6)c5)nn4)cc3)oc3ccccc3c2=O)c1	2.8
O=c1cc(-c2ccccc2)oc2cc(OCCCCc3cn(CCOCCOCCOc4ccc(-c5oc6ccccc6c(=O)c5OCc5ccccc5)cc4)nn3)ccc12	35
O=c1cc(-c2ccccc2)oc2cc(OCCOCc3cn(CCOCCOCCOc4ccc(-c5cc(=O)c6cc(F)ccc6o5)cc4)nn3)ccc12	230
O=c1cc(-c2ccccc2)oc2cc(OCCOCCOCCn3cc(CN(CCOc4ccc5c(=O)cc(-c6ccccc6)oc5c4)Cc4ccccc4)nn3)ccc12	54
O=c1cc(-c2ccccc2)oc2cc(OCCOCCn3cc(CN(Cc4ccccc4)Cc4cn(CCOCCOc5ccc6c(=O)cc(-c7ccccc7)oc6c5)nn4)nn3)ccc12	153
COC(=O)c1cccc(COc2c(-c3ccc(OCCOCCOCCn4cc(CN(Cc5ccccc5)Cc5cn(CCOCCOCCOc6ccc(-c7oc8ccccc8c(=O)c7OCc7cccc(C(=O)OC)c7)cc6)nn5)nn4)cc3)oc3ccccc3c2=O)c1	3.3
O=c1cc(-c2ccccc2)oc2cc(OCCOCc3cn(CCOCCOc4ccc(-c5cc(=O)c6cc(F)ccc6o5)cc4)nn3)ccc12	285
O=c1c(OCc2ccccc2)c(-c2ccc(OCCOCCOCCn3cc(CN(Cc4ccccc4)Cc4cn(CCOCCOCCOc5ccc(-c6oc7ccccc7c(=O)c6OCc6ccccc6)cc5)nn4)nn3)cc2)oc2ccccc12	36
Cc1ccc2oc(-c3ccc(OCCOCCOCCn4cc(CN(CCOc5ccc6c(=O)cc(-c7ccccc7)oc6c5)Cc5ccccc5)nn4)cc3)cc(=O)c2c1	55
Cc1ccc2oc(-c3ccc(OCCOCCOCCn4cc(CCCOc5ccc6c(=O)cc(-c7ccccc7)oc6c5)nn4)cc3)cc(=O)c2c1	35
COC(=O)c1cccc(COc2c(-c3ccc(OCCOCCOCCn4cc(CN5CCN(Cc6cn(CCOCCOCCOc7ccc(-c8oc9ccccc9c(=O)c8OCc8cccc(C(=O)OC)c8)cc7)nn6)CC5)nn4)cc3)oc3ccccc3c2=O)c1	31
COC(=O)c1cccc(COc2c(-c3ccc(OCCOCCn4cc(CN(C)CCN(C)Cc5cn(CCOCCOc6ccc(-c7oc8ccccc8c(=O)c7OCc7cccc(C(=O)OC)c7)cc6)nn5)nn4)cc3)oc3ccccc3c2=O)c1	133
COC(=O)c1cccc(COc2c(-c3ccc(OCCOCCn4cc(CN5CCN(Cc6cn(CCOCCOc7ccc(-c8oc9ccccc9c(=O)c8OCc8cccc(C(=O)OC)c8)cc7)nn6)CC5)nn4)cc3)oc3ccccc3c2=O)c1	18
COC(=O)c1cccc(COc2c(-c3ccc(OCCOCCn4cc(CN(Cc5ccncc5)Cc5cn(CCOCCOc6ccc(-c7oc8ccccc8c(=O)c7OCc7cccc(C(=O)OC)c7)cc6)nn5)nn4)cc3)oc3ccccc3c2=O)c1	49
COC(=O)c1cccc(COc2c(-c3ccc(OCCOCCn4cc(CN(Cc5cn(CCOCCOc6ccc(-c7oc8ccccc8c(=O)c7OCc7cccc(C(=O)OC)c7)cc6)nn5)c5ccccc5)nn4)cc3)oc3ccccc3c2=O)c1	6.8

Experiment: Inhibition of P-gp (unknown origin) expressed in human LCC6MDR cells assessed as reversal of paclitaxel resistance after 5 days by MTS/PMS assay

Compound	EC50 [nM]
O=c1cc(-c2ccc(OCCOCCn3cc(COCCOc4ccc5c(=O)cc(-c6ccccc6)oc5c4)nn3)cc2)oc2ccccc12	960
O=c1cc(-c2ccc(OCCOCCn3cc(CN(CCOc4ccc5c(=O)cc(-c6ccccc6)oc5c4)Cc4ccccc4)nn3)cc2)oc2ccccc12	630
O=c1cc(-c2ccccc2)oc2cc(OCCN(Cc3ccccc3)Cc3cn(CCOCCOCCOc4ccc(-c5cc(=O)c6cc(F)ccc6o5)cc4)nn3)ccc12	334
Cc1ccc2oc(-c3ccc(OCCOCCOCCn4cc(CCCOc5ccc(-c6cc(=O)c7ccc(F)cc7o6)cc5)nn4)cc3)cc(=O)c2c1	219
O=c1cc(-c2ccc(OCCCc3cn(CCOCCOCCOc4ccc(-c5cc(=O)c6cc(F)ccc6o5)cc4)nn3)cc2)oc2cc(F)ccc12	161
O=c1cc(-c2ccc(OCCCc3cn(CCOCCOc4ccc5c(=O)cc(-c6ccccc6)oc5c4)nn3)cc2)oc2cc(F)ccc12	69
O=c1cc(-c2ccc(OCCOCCOCCn3cc(CCCOc4ccc(-c5cc(=O)c6ccc(F)cc6o5)cc4)nn3)cc2)oc2ccccc12	255
COC(=O)c1cccc(COc2c(-c3ccc(OCCOCCOCCn4cc(-c5cccc(-c6cn(CCOCCOCCOc7ccc(-c8oc9ccccc9c(=O)c8OCc8cccc(C(=O)OC)c8)cc7)nn6)c5)nn4)cc3)oc3ccccc3c2=O)c1	> 1000
O=c1cc(-c2ccccc2)oc2cc(OCCCCc3cn(CCOCCOCCOc4ccc(-c5oc6ccccc6c(=O)c5OCc5ccccc5)cc4)nn3)ccc12	278
O=c1cc(-c2ccccc2)oc2cc(OCCOCc3cn(CCOCCOCCOc4ccc(-c5cc(=O)c6cc(F)ccc6o5)cc4)nn3)ccc12	967
O=c1cc(-c2ccccc2)oc2cc(OCCOCCOCCn3cc(CN(CCOc4ccc5c(=O)cc(-c6ccccc6)oc5c4)Cc4ccccc4)nn3)ccc12	403
O=c1cc(-c2ccccc2)oc2cc(OCCOCCn3cc(CN(Cc4ccccc4)Cc4cn(CCOCCOc5ccc6c(=O)cc(-c7ccccc7)oc6c5)nn4)nn3)ccc12	> 1000
COC(=O)c1cccc(COc2c(-c3ccc(OCCOCCOCCn4cc(CN(Cc5ccccc5)Cc5cn(CCOCCOCCOc6ccc(-c7oc8ccccc8c(=O)c7OCc7cccc(C(=O)OC)c7)cc6)nn5)nn4)cc3)oc3ccccc3c2=O)c1	> 1000
O=c1cc(-c2ccccc2)oc2cc(OCCOCc3cn(CCOCCOc4ccc(-c5cc(=O)c6cc(F)ccc6o5)cc4)nn3)ccc12	> 1000
O=c1c(OCc2ccccc2)c(-c2ccc(OCCOCCOCCn3cc(CN(Cc4ccccc4)Cc4cn(CCOCCOCCOc5ccc(-c6oc7ccccc7c(=O)c6OCc6ccccc6)cc5)nn4)nn3)cc2)oc2ccccc12	560
Cc1ccc2oc(-c3ccc(OCCOCCOCCn4cc(CN(CCOc5ccc6c(=O)cc(-c7ccccc7)oc6c5)Cc5ccccc5)nn4)cc3)cc(=O)c2c1	210
Cc1ccc2oc(-c3ccc(OCCOCCOCCn4cc(CCCOc5ccc6c(=O)cc(-c7ccccc7)oc6c5)nn4)cc3)cc(=O)c2c1	350
COC(=O)c1cccc(COc2c(-c3ccc(OCCOCCOCCn4cc(CN5CCN(Cc6cn(CCOCCOCCOc7ccc(-c8oc9ccccc9c(=O)c8OCc8cccc(C(=O)OC)c8)cc7)nn6)CC5)nn4)cc3)oc3ccccc3c2=O)c1	> 1000
COC(=O)c1cccc(COc2c(-c3ccc(OCCOCCn4cc(CN(C)CCN(C)Cc5cn(CCOCCOc6ccc(-c7oc8ccccc8c(=O)c7OCc7cccc(C(=O)OC)c7)cc6)nn5)nn4)cc3)oc3ccccc3c2=O)c1	> 1000
COC(=O)c1cccc(COc2c(-c3ccc(OCCOCCn4cc(CN5CCN(Cc6cn(CCOCCOc7ccc(-c8oc9ccccc9c(=O)c8OCc8cccc(C(=O)OC)c8)cc7)nn6)CC5)nn4)cc3)oc3ccccc3c2=O)c1	683
COC(=O)c1cccc(COc2c(-c3ccc(OCCOCCn4cc(CN(Cc5ccncc5)Cc5cn(CCOCCOc6ccc(-c7oc8ccccc8c(=O)c7OCc7cccc(C(=O)OC)c7)cc6)nn5)nn4)cc3)oc3ccccc3c2=O)c1	> 1000
COC(=O)c1cccc(COc2c(-c3ccc(OCCOCCn4cc(CN(Cc5cn(CCOCCOc6ccc(-c7oc8ccccc8c(=O)c7OCc7cccc(C(=O)OC)c7)cc6)nn5)c5ccccc5)nn4)cc3)oc3ccccc3c2=O)c1	> 1000
